Our source for the IC50 values is patent publication US20230096517A1, “GLUTARIMIDE SKELETON-BASED COMPOUNDS AND APPLICATION THEREOF” (SHANGHAITECH UNIVERSITY, priority 2020, published 2023).

The test system of the first assay is MM.1S cells. Kind of assay: Proliferation inhibition (IC50) in multiple myeloma cells, cell viability with WST/CCK-8 reagent.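 Also: MM.1S B-lymphoblast cells at 15,000 per well in 100 µL serum-containing RPMI1640, experiment run more than three times.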 The note with it: Homo sapiens, MM1.S, 72 h, read-out: IC50 (half inhibitory concentration). On the technique in general: Tetrazolium dyes change colour on reduction, which living cells bring about.
Description: Multiple myeloma cell line: MM.1S (B lymphoblast), purchased from ATCC (American Type Culture Collection). Culture medium was RPMI1640 supplemented with 10% FBS and 1% Penicillin-Streptomycin. The cells used were identified as correct cells by STR cells and negative for mycoplasma by routine inspections.
IC50 values of the compounds of the present disclosure were measured using Cell Titer Blue, Cell Titer GLO, or WST reagent from Promega Company. Assay details are as follows: Cells were seeded in 100 μL RPMI1640 complete medium containing serum at a density of 15,000 cells/well.
The experiment was repeated more than three times.
On to `O=C1CCC(N2Cc3cc(CCCCCCCCNC45CC6CC(CC(C6)C4)C5)ccc3C2=O)C(=O)N1` (stereo not shown) [SIAIS271187, 3-(5-(8-((adamantan-1-yl)amino)octyl)-1-oxoisoindolin-2-yl)piperidine-2,6-dione], for which the IC50 amounted to 17 nM.
Still for that read-out and setting: under `O=C1CCC(N2Cc3c(NCCCCCCCN4CCCCC4)cccc3C2=O)C(=O)N1` (stereo not shown) [SIAIS1220125, 3-(1-oxo-4-((7-(piperidin-1-yl)heptyl)amino)isoindolin-2-yl)piperidine-2,6-dione, reference compound] stands 697 nM; under `O=C1CCC(N2C(=O)c3cccc(NCCCCCCCN4CCCCC4)c3C2=O)C(=O)N1` (stereo not shown) [SIAIS1221047, 2-(2,6-dioxopiperidin-3-yl)-4-((7-(piperidin-1-yl)heptyl)amino)isoindoline-1,3-dione, reference compound], 0.78 nM; under `O=C1CCC(N2C(=O)c3ccc(NCCCCCCCNC45CC6CC(CC(C6)C4)C5)cc3C2=O)C(=O)N1` (stereo not shown) [SIAIS1221055, 5-((7-((adamantan-1-yl)amino)heptyl)amino)-2-(2,6-dioxopiperidin-3-yl)isoindoline-1,3-dione], 1.43 nM.
Still for that read-out and setting: the result for `O=C1CCC(N2C(=O)c3cccc(OCCCCCCCNC45CC6CC(CC(C6)C4)C5)c3C2=O)C(=O)N1` (stereo not shown) [SIAIS1221077, 4-((7-((adamantan-1-yl)amino)heptyl)oxy)-2-(2,6-dioxopiperidin-3-yl)isoindoline-1,3-dione] reads 5.53 nM; that for `O=C1CCC(N2C(=O)c3cccc(OCCCCCCCN4CCCCC4)c3C2=O)C(=O)N1` (stereo not shown) [SIAIS1221079, 2-(2,6-dioxopiperidin-3-yl)-4-((7-(piperidin-1-yl)heptyl)oxy)isoindoline-1,3-dione, reference compound], 65.9 nM.
Consider `O=C1CCC(N2Cc3c(NCCCCCCCNC45CC6CC(CC(C6)C4)C5)cccc3C2=O)C(=O)N1` (stereo not shown) [SIAIS1221091, 3-(4-((7-((adamantan-1-yl)amino)heptyl)amino)-1-oxoisoindolin-2-yl)piperidine-2,6-dione], for which the IC50 is 1.51 nM.
The same measure, in the same setting: under `O=C1CCC(N2Cc3c(C#CCCCCCCNC45CC6CC(CC(C6)C4)C5)cccc3C2=O)C(=O)N1` (stereo not shown) [SIAIS1221095, 3-(4-(8-((adamantan-1-yl)amino)oct-1-yn-1-yl)-1-oxoisoindolin-2-yl)piperidine-2,6-dione] stands 2.21 nM.
On the same count and under the same terms, under `O=C1CCC(N2Cc3c(CCCCCCCCNC45CC6CC(CC(C6)C4)C5)cccc3C2=O)C(=O)N1` (stereo not shown) [SIAIS1221105, 3-(4-(8-((adamantan-1-yl)amino)octyl)-1-oxoisoindolin-2-yl)piperidine-2,6-dione] stands 0.044 nM; under `O=C1CCC(N2Cc3c(CCCCCCCCN4CCCCC4)cccc3C2=O)C(=O)N1` (stereo not shown) [SIAIS1221107, 3-(1-oxo-4-(8-(piperidin-1-yl)octyl)isoindolin-2-yl)piperidine-2,6-dione, reference compound], 3.93 nM.
The same measure, in the same setting: the result for `O=C1CCC(N2Cc3c(OCCCCCCCN4CCCCC4)cccc3C2=O)C(=O)N1` (stereo not shown) [SIAIS1221109, 3-(1-oxo-4-((7-(piperidin-1-yl)heptyl)oxy)isoindolin-2-yl)piperidine-2,6-dione, reference compound] reads 17.6 nM; that for `CC1(C)[C@@H]2CC[C@@]1(C)[C@@H](NCc1ccc(CNc3cccc4c3C(=O)N(C3CCC(=O)NC3=O)C4=O)cc1)C2` (stereo partly drawn) [SIAIS1221173, 2-(2,6-dioxopiperidin-3-yl)-4-((4-((((1R,2S,4R)-1,7,7-trimethylbicyclo[2.2.1]heptan-2-yl)amino)methyl)benzyl)amino)isoindoline-1,3-dione], 1.09 nM; that for `O=C1CCC(N2Cc3c(OCCCCCCCNC4CCCCC4)cccc3C2=O)C(=O)N1` (stereo not shown) [SIAIS1221187, 3-(4-((7-(cyclohexylamino)heptyl)oxy)-1-oxoisoindolin-2-yl)piperidine-2,6-dione], 1.13 nM.
Turning to `CC1(C)[C@@H]2CC[C@@]1(C)[C@@H](NCCCCCCCOc1cccc3c1CN(C1CCC(=O)NC1=O)C3=O)C2` (stereo partly drawn) [SIAIS1221189, 3-(1-oxo-4-((7-(((1R,2S,4R)-1,7,7-trimethylbicyclo[2.2.1]heptan-2-yl)amino)heptyl)oxy)isoindolin-2-yl)piperidine-2,6-dione], the IC50 worked out at 1.2 nM.
Same read-out and setting: the result for `O=C1CCC(N2Cc3c(CCCCCCCCNC4CCCCC4)cccc3C2=O)C(=O)N1` (stereo not shown) [SIAIS1221193, 3-(4-(8-(cyclohexylamino)octyl)-1-oxoisoindolin-2-yl)piperidine-2,6-dione] reads 0.854 nM; that for `O=C1CCC(N2Cc3c(CCCCCCCNCC45CC6CC(CC(C6)C4)C5)cccc3C2=O)C(=O)N1` (stereo not shown) [SIAIS1222021, 3-(4-(7-(((adamantan-1-yl)methyl)amino)heptyl)-1-oxoisoindolin-2-yl)piperidine-2,6-dione], 0.781 nM; that for `O=C1CCC(N2Cc3c(NCc4ccc(CNC56CC7CC(CC(C7)C5)C6)cc4)cccc3C2=O)C(=O)N1` (stereo not shown) [SIAIS1222025, 3-(4-((4-(((adamantan-1-yl)amino)methyl)benzyl)amino)-1-oxoisoindolin-2-yl)piperidine-2,6-dione], 3.24 nM.
`CN(CCCCCCCCc1cccc2c1CN(C1CCC(=O)NC1=O)C2=O)C12CC3CC(CC(C3)C1)C2` (stereo not shown) [SIAIS1222031, 3-(4-(8-((adamantan-1-yl)(methyl)amino)octyl)-1-oxoisoindolin-2-yl)piperidine-2,6-dione]: the IC50 was found to be 0.27 nM.
Same read-out and setting: under `O=C1CCC(N2C(=O)c3cccc(NCc4ccc(CNC56CC7CC(CC(C7)C5)C6)cc4)c3C2=O)C(=O)N1` (stereo not shown) [SIAIS1222035, 4-((4-(((adamantan-1-yl)amino)methyl)benzyl)amino)-2-(2,6-dioxopiperidin-3-yl)isoindoline-1,3-dione] stands 2.46 nM; under `O=C1CCC(N2C(=O)c3cccc(NCCCCCCNCC45CC6CC(CC(C6)C4)C5)c3C2=O)C(=O)N1` (stereo not shown) [SIAIS1222037, 4-((6-(((adamantan-1-yl)methyl)amino)hexyl)amino)-2-(2,6-dioxopiperidin-3-yl)isoindoline-1,3-dione], 0.13 nM.
On the same count and under the same terms, under `O=C1CCC(N2C(=O)c3cccc(NCCCCCCCNC4CCCCC4)c3C2=O)C(=O)N1` (stereo not shown) [SIAIS1222039, 4-((7-(cyclohexylamino)heptyl)amino)-2-(2,6-dioxopiperidin-3-yl)isoindoline-1,3-dione] stands 0.326 nM.
In the case of `CC1(C)[C@@H]2CC[C@@]1(C)[C@@H](NCCCCCCCNc1cccc3c1C(=O)N(C1CCC(=O)NC1=O)C3=O)C2` (stereo partly drawn) [SIAIS1222041, 2-(2,6-dioxopiperidin-3-yl)-4-((7-(((1R,2S,4R)-1,7,7-trimethylbicyclo[2.2.1]heptan-2-yl)amino)heptyl)amino)isoindoline-1,3-dione], the IC50 came to 0.383 nM.
On to `O=C1CCC(N2Cc3c(NCCCCCCCCNC45CC6CC(CC(C6)C4)C5)cccc3C2=O)C(=O)N1` (stereo not shown) [SIAIS1222045, 3-(4-((8-((adamantan-1-yl)amino)octyl)amino)-1-oxoisoindolin-2-yl)piperidine-2,6-dione], for which the IC50 was found to be 3.78 nM.
The same measure, in the same setting: the result for `O=C1CCC(N2Cc3c(C#CCCCCCCCNC45CC6CC(CC(C6)C4)C5)cccc3C2=O)C(=O)N1` (stereo not shown) [SIAIS1222047, 3-(4-(9-((adamantan-1-yl)amino)non-1-yn-1-yl)-1-oxoisoindolin-2-yl)piperidine-2,6-dione] reads 13 nM; that for `O=C1CCC(N2Cc3c(CCc4ccc(CNC56CC7CC(CC(C7)C5)C6)cc4)cccc3C2=O)C(=O)N1` (stereo not shown) [SIAIS1222051, 3-(4-(4-(((adamantan-1-yl)amino)methyl)phenethyl)-1-oxoisoindolin-2-yl)piperidine-2,6-dione], 4.1 nM; that for `O=C1CCC(N2Cc3c(CCc4ccc(CNCC56CC7CC(CC(C7)C5)C6)cc4)cccc3C2=O)C(=O)N1` (stereo not shown) [SIAIS1222053, 3-(4-(4-((((adamantan-1-yl)methyl)amino)methyl)phenethyl)-1-oxoisoindolin-2-yl)piperidine-2,6-dione], 1.61 nM.
In the case of `CC1(C)[C@@H]2CC[C@@]1(C)[C@@H](NCc1ccc(CCc3cccc4c3CN(C3CCC(=O)NC3=O)C4=O)cc1)C2` (stereo partly drawn) [SIAIS1222055, 3-(1-oxo-4-(4-((((1R,2S,4R)-1,7,7-trimethylbicyclo[2.2.1]heptan-2-yl)amino)methyl)phenethyl)isoindolin-2-yl)piperidine-2,6-dione], the IC50 was found to be 0.239 nM.
Regarding `O=C1CCC(N2Cc3c(NCCCCCCNCC45CC6CC(CC(C6)C4)C5)cccc3C2=O)C(=O)N1` (stereo not shown) [SIAIS1222073, 3-(4-((6-(((adamantan-1-yl)methyl)amino)hexyl)amino)-1-oxoisoindolin-2-yl)piperidine-2,6-dione], the IC50 came to 1.26 nM.
On the same count and under the same terms, the result for `O=C1CCC(N2C(=O)c3cccc(NCCCCCCNC45CC6CC(CC(C6)C4)C5)c3C2=O)C(=O)N1` (stereo not shown) [SIAIS1222093, 4-((6-((adamantan-1-yl)amino)hexyl)amino)-2-(2,6-dioxopiperidin-3-yl)isoindoline-1,3-dione] reads 1.58 nM.
Still for that read-out and setting: the result for `O=C1CCC(N2C(=O)c3cccc(NCCCCCNC45CC6CC(CC(C6)C4)C5)c3C2=O)C(=O)N1` (stereo not shown) [SIAIS1222095, 4-((5-((adamantan-1-yl)amino)pentyl)amino)-2-(2,6-dioxopiperidin-3-yl)isoindoline-1,3-dione] reads 1.1 nM; that for `O=C1CCC(N2Cc3c(OCCCCCCNC45CC6CC(CC(C6)C4)C5)cccc3C2=O)C(=O)N1` (stereo not shown) [SIAIS1222163, 3-(4-((6-((adamantan-1-yl)amino)hexyl)oxy)-1-oxoisoindolin-2-yl)piperidine-2,6-dione], 2.11 nM.

Staying with this assay, now noted: Homo sapiens, MM1.S, 72 h, read-out: IC50 (half inhibitory concentration), MM.1S multiple myeloma cells, WST reagent, 72 h treatment.
Turning to `O=C1CCC(N2C(=O)c3cccc(NCCCCCCCNC45CC6CC(CC(C6)C4)C5)c3C2=O)C(=O)N1` (stereo not shown) [SIAIS1221053, 4-((7-((adamantan-1-yl)amino)heptyl)amino)-2-(2,6-dioxopiperidin-3-yl)isoindoline-1,3-dione], the IC50 was found to be 0.16 ± 0.03 nM.
On the same count and under the same terms, under `O=C1CCC(N2Cc3c(OCCCCCCCNC45CC6CC(CC(C6)C4)C5)cccc3C2=O)C(=O)N1` (stereo not shown) [SIAIS1221111, 3-(4-((7-((adamantan-1-yl)amino)heptyl)oxy)-1-oxoisoindolin-2-yl)piperidine-2,6-dione] stands ~0.09 nM.

Still in this assay, the particulars now being: read-out: IC50 (half inhibitory concentration); MM.1S multiple myeloma cells, WST reagent, 72 h treatment.
For the molecule `O=C1CCC(N2Cc3c(OCCCCCCCNC45CC6CC(CC(C6)C4)C5)cccc3C2=O)C(=O)N1` (stereo not shown) [SIAIS1221111, 3-(4-((7-((adamantan-1-yl)amino)heptyl)oxy)-1-oxoisoindolin-2-yl)piperidine-2,6-dione], the IC50 worked out at 0.089 nM.
